Publication PMC8895403, “A Strategy to Select Macrocyclic Peptides Featuring Asymmetric Molecular Scaffolds as Cyclization Units by Phage Display” (Journal of the American Chemical Society, 2022)
Like-named read-outs stand apart in the source and are kept apart here. Numbered stars: 1 amine (or outer) side, 2 acyl side, 3 side chain; on linkers, the order of the positions; unused ones are H or OH. Bridge positions count the residues as written; N and C are the ends. Square brackets hold non-standard residues; d marks the D form. Ends that are not written are not given here. Peptide text beside a SMILES is read from it. * marks the point of attachment. X1 = COc1ccc(CN([C@@H](C)C(=O)[*:2])[*:1])cc1N[*:3]; X3 = COc1ccc(CO)cc1NC(=O)C*; X2 = O=C(C[*:2])[*:1]

Legend:
streptavidin [1] = target: T1, streptavidin (Streptomyces avidinii, UniProt P22629); assay: HABA competition binding assay (competitive ligand-binding analysis); conditions: for Kd: read-out: Kd,app
T1 sequence (P22629 25-183): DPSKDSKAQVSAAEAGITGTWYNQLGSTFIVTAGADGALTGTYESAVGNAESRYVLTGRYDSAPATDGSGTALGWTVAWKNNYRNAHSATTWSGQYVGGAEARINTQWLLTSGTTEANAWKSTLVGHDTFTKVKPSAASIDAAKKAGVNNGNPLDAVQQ
Source text: To pinpoint the binding mode of SAV_1–3 variants, we first synthesized the linear precursors and then prepared their modified and cyclized versions (Figure S13). […] To further elucidate the role of the free aldehyde for binding, we additionally prepared SAV_1–3 peptides that were modified with cyclization units bearing an alcohol moiety instead (Figures 6b and S13). […]
In vitro affinity measurements: To determine the affinity of the selected peptides for Streptavidin, a competitive binding experiment was performed similarly to previously described literature procedures.[7] In brief, for the competitive binding experiment, increasing amounts of peptide (final concentration 0.01 – 500 μM in 12.5% ACN + 0.1% TFA in PBS phosphate buffered saline (PBS, 137 mM NaCl, 2.7 mM KCl, 10 mM Na2HPO4, 2 mM […]
Streptavidin monomer (final concentration 1.5 mM/ 40 µM (SAV_1), 33 µM (SAV_2), 32 µM (SAV_3)). The reactions were allowed to reach equilibrium at room temperature (60 min.) and […]
IC50 values were obtained by fitting the average of three measurements to equation 1:
A = A + A500nm,max − A500nm,min (1) […]
where, A500nm is the measured absorbance at unbound peptide concentration, [L], and H is the Hill coefficient (H = 1 assumed for streptavidin-binding peptides). A500nm,min corresponds to the value measured in presence of 1 mM biotin and A500nm,max corresponds to absorbance values measured in absence of the peptide.
The Kd values for SAV_1_mod, SAV_1_cycl, and SAV_2_mod, SAV_1S_mod, and SAV_1S_cycl were obtained from their respective IC50 values using equation 2: […]

streptavidin [2] = target: T1, streptavidin; assay: Biopanning of phages displaying SAV_1-3 against streptavidin (recovery rates from phage titers); type: binding; conditions: for recovery rate / retention after biopanning against streptavidin (in words): phages subjected to cyclization conditions, compared with linear and modified
Source text: To independently verify that our strategy selects peptide binders, we first produced phages displaying SAV_1–3. Next, we performed the modification and cyclization reactions as described previously and determined phage titers before and after biopanning against streptavidin for phages featuring the linear precursor, the modified and cyclized peptides (Figure S12, see the Supporting Information for details). Consistent with the selection of peptide binders upon addition of our bifunctional cyclization units, the recovery rates for linear precursors were the lowest for all three peptides (Figure 6A). […] Featuring a reactive aldehyde moiety, this apparently higher affinity of the modified analogue of SAV_2 could be the result of the transient formation of an iminium ion via condensation with either the N-terminal amine or a lysine side chain of streptavidin.
Production of SAV_1-3 displaying bacteriophages: To validate the selection of cyclic peptide binders over their linear, and modified counterparts, phages displaying the peptide sequences of the […] most enriched hits SAV_1, SAV_2 and SAV_3 were panned against streptavidin either in linear, modified or cyclic peptide form. Phage titers pre- and post-streptavidin panning were determined and compared between all the samples.
In brief, 700 μL of densely grown E. coli TG1 overnight cultures harboring the […]
-fd plasmid (SAV_1), […]-fd plasmid (SAV_2) and
-fd plasmid (SAV_3) respectively, were used to inoculate 500 mL 2xYT-medium containing 30 μg/mL chloramphenicol. After incubation overnight (30 °C at 190 rpm) phage particles were purified and all cysteines were reduced with TCEP as described in Section
9. At this point the phage samples were split into 3 fractions of 2.5 mL. One sample was stored at 4 °C as ‘linear phage’ sample, the other two samples were modified with scaffold 3 (SAV_1 and SAV_2) or scaffold 4 (SAV_3) and purified as described in Section 9. […] Phage titers of these samples were determined ( Figure S12A) and all samples were diluted to approximately […] colony forming units using reduction buffer. […]

In the case of `COc1ccc(CO)cc1NC(=O)CSC[C@H](NC(=O)[C@H](C)NC(=O)[C@@H]1CSCC(=O)Nc2cc(ccc2OC)CN[C@@H](C)C(=O)N[C@@H](Cc2c[nH]c3ccccc23)C(=O)N[C@@H](Cc2c[nH]c3ccccc23)C(=O)N[C@@H]([C@@H](C)O)C(=O)N[C@@H](CC(N)=O)C(=O)N[C@@H](CC(=O)O)C(=O)N[C@@H](Cc2ccccc2)C(=O)N1)C(=O)N[C@@H](C)C(N)=O` [cyclic SAV_1] (H-[X1]WWTNDFCAC(X3)A-NH2; linker 1-8 via X2), the “factor/fold advantage in Kd,app of cyclic peptide over aldehyde-modified peptide” value (streptavidin [1]; cyclic vs aldehyde-modified form of the same sequence) is reported as roughly 20.

`C[C@H](N)C(=O)N[C@@H](Cc1c[nH]c2ccccc12)C(=O)N[C@@H](Cc1c[nH]c2ccccc12)C(=O)N[C@@H](CCC(=O)O)C(=O)N[C@@H](CC(=O)O)C(=O)N[C@@H](CCCNC(=N)N)C(=O)NCC(=O)N1CCC[C@H]1C(=O)N1CCC[C@H]1C(=O)N[C@@H](CS)C(=O)N[C@@H](C)C(N)=O` [SAV_2] was tested, and the “affinity for streptavidin in the competition assay (in words)” value (streptavidin [1]; form of the peptide as worded at the place) was “the cyclic peptide did not display any affinity” and the “recovery rate after biopanning against streptavidin (in words)” value (streptavidin [2]; phages with modified (aldehyde) peptide, compared with linear and cyclized) was “highest recovery rates”.

In the case of `COc1ccc2cc1NC(=O)CSC[C@@H](C(=O)N[C@@H](C)C(N)=O)NC(=O)[C@H](Cc1ccccc1)NC(=O)[C@H](CC(=O)O)NC(=O)[C@H](CC(N)=O)NC(=O)[C@H]([C@@H](C)O)NC(=O)[C@H](Cc1c[nH]c3ccccc13)NC(=O)[C@H](Cc1c[nH]c3ccccc13)NC(=O)[C@H](C)NC2` [cyclic SAV_1S] (H-[X1]WWTNDFCA-NH2; linker 1-8 via X2), the Kd (streptavidin [1]; cyclic peptide) is reported as 0.164 ± 0.078 µM.

AWWTNDFCA-NH2 [SAV_1S] gave a Kd (streptavidin [1]; aldehyde-modified peptide (Figure 6b, column 3), >10 μM given where no saturation) of 5.16 ± 0.59 µM, a Kd (streptavidin [1]; cyclic peptide (Figure 6b, column 4), >10 μM given where no saturation) of 0.164 ± 0.078 µM and a Kd (streptavidin [1]; linear precursor peptide (Figure 6b, column 1), >10 μM given where no saturation) greater than 10 µM.

In the case of `C[C@H](N)C(=O)N[C@@H](Cc1c[nH]c2ccccc12)C(=O)N[C@@H](Cc1c[nH]c2ccccc12)C(=O)N[C@H](C(=O)N[C@@H](CC(N)=O)C(=O)N[C@@H](CC(=O)O)C(=O)N[C@@H](Cc1ccccc1)C(=O)N[C@@H](CS)C(=O)N[C@@H](C)C(=O)N[C@@H](CS)C(=O)N[C@@H](C)C(N)=O)[C@@H](C)O` [SAV_1], the “recovery rate / retention after biopanning against streptavidin (in words)” value (streptavidin [2]) is reported as “highest levels of retention”.

For `CSCC[C@H](NC(=O)CNC(=O)[C@@H](NC(=O)[C@H](CC(C)C)NC(=O)CNC(=O)[C@@H](NC(=O)[C@H](CC(N)=O)NC(=O)[C@H](CCCNC(=N)N)NC(=O)[C@H](C)N)C(C)C)C(C)C)C(=O)N[C@@H](CS)C(=O)N[C@@H](C)C(N)=O` [SAV_3], the “recovery rate / retention after biopanning against streptavidin (in words)” value (streptavidin [2]) was “highest levels of retention”.
